# Assay results from patent publication US20060258581A1, “Methods and composition for derepressions of IAP-inhibited caspase” (priority 2001, published 2006).
# Read-outs that look alike come from different tables or passages of the source. Where a SMILES comes first, the peptide text is derived from it. [ ]: non-standard residue; d: D form. The star is where a group is joined. Phe(4-Cl) = N[C@@H](Cc1ccc(Cl)cc1)C(=O)O; 2Nal = N[C@@H](Cc1ccc2ccccc2c1)C(=O)O; Fmoc = O=C(OCC1c2ccccc2-c2ccccc21)*; 2Thi = N[C@@H](Cc1cccs1)C(=O)O
# Assays:
# full length XIAP = full length XIAP (Homo sapiens, UniProt P98170); test: Potency of IAP antagonists in vitro (Table VIII; caspase derepression / SMAC competition with full length XIAP); settings: for Relative Potency (fold versus SMAC peptide): SMAC AVPI tetrapeptide = 1.0; for EC50: amount of compound necessary to restore caspase-3 activity to 50% of Vmax
# [1] = test system: ALVA31 prostate cancer cells; test: ALVA31 prostate cancer cell viability (XTT dye-reduction, trypan blue); format: cell-based; settings: 24 hrs; for cell viability, compound alone: peptides 40 μM, VP-16 100 μM; for tumor cell killing, combination with VP-16: peptide 40 μM with VP-16 100 μM
# Description: The in vivo effects of TPI 792-33 or TPI 792-35, either individually or in combination with the cytotoxic anticancer drug VP-16 (etoposide), on derepression of XIAP-inhibited caspase and viability of ALVA31 cells was determined as follows. ALVA31 prostate cancer cells were seeded onto 96 well plates (10^4 cells/well) in 100 μL RPMI containing 2.5% fetal bovine serum (FBS). […] After another 24 hrs-incubation, cell viability was measured by the XTT dye-reduction assay (Roche, Molecular Biochemicals; Indianapolis, Ind.) and trypan blue dye exclusion assay.
# XIAP-inhibited caspase-3 = biological target: T1, XIAP-inhibited caspase-3 (Homo sapiens, UniProt P98170); test: IAP derepression assay: Ac-DEVD-AFC hydrolysis by caspase-3 in the presence of GST-XIAP; format: biochemical; settings: for activity in the caspase derepression assay using full length XIAP: in words; for Activity* (relative caspase-3 activity: Vmax in the presence of compound / Vmax of controls having caspase-3 and XIAP): XIAP derepression assay
# T1 construct: in a caspase derepression assay using full length XIAP; made in house; host or cells: bacteria
# Description: The ratio of Vmax for hydrolysis of Ac-DEVD-AFC in the presence and absence of the candidate mixture was calculated and used to identify those that contain an agent that derepresses an IAP-inhibited caspase.
# Each mixture was aliquoted in a 25 microliter volume and in duplicate to a well of a 96 well microtiter plate. […] Fluorescence of liberated AFC was immediately detected from each well for 30 minutes at 30 second intervals. The Vmax for hydrolysis of AC-DEVD-AFC from each well was measured using the softmax software package.
# XIAP = XIAP (Homo sapiens, UniProt P98170); test: SMAC binding/competition assay: biotinylated SMAC 7-mer on NeutrAvidin plates, GST-XIAP detected by anti-GST; settings: in words
# Description: Peptide compounds containing unnatural amino acids in the 792 series, 792-33 and 792-35 (see FIG. 12 and 20 and Example XI), and an active compound in the TPI 1332 series, TPI 1332-69, were tested for binding activity in the SMAC binding assay as described above in Example X. For this assay, biotinylated SMAC 7-mer peptide (50 ng) was bound to 96 well plates coated with NeutrAvidin (Pierce, Rockford, Ill.) at 1 mg/ml in 100 μl per well of 50 mM HEPES pH 7.4, 100 mM NaCl 1 mM EDTA, 10% sucrose, 0.1% CHAPS, 10 mM DTT.
# Jurkat leukemia cells = test: Jurkat leukemia cell death, Annexin V/propidium iodide flow cytometry; format: cell-based; settings: for cells killed: one day treatment
# Description: The following assay was used to test the ability of individual compounds from the TPI 1396 and TPI 1391 libraries to induce apoptosis of cultured tumor cell lines. Each of the compounds listed in Table IX was individually added to Jurkat leukemia cells (6.25×10^5 cells/mL) in RPMI containing 2.5% FBS at various concentrations for 20 hours. After incubation, cells were washed and stained with FITC-conjugated Annexin V antibody and propidium iodide (Biovision; Mountain View, Calif.). Cells were incubated for 20 minutes at room temperature in the dark and fluorescence was measured by flow cytometry (FACScan, Immunocytometry system; Becton-Dickinson; San Jose, Calif.). Cells staining positive for Annexin V were deemed non-viable.
# The TPI I396-34 and TPI 1391-28 compounds were further tested as set forth below.
# [2] = test system: normal bone marrow mononuclear cells; test: Normal bone marrow mononuclear cells versus Jurkat, Annexin V, 20 hours; format: cell-based; settings: 5 μM
# Description: After incubation, cells were washed, stained with FITC-conjugated Annexin V antibody and propidium iodide, and fluorescence measured by flow cytometry as described above.
# T1 sequence (P98170 whole entry): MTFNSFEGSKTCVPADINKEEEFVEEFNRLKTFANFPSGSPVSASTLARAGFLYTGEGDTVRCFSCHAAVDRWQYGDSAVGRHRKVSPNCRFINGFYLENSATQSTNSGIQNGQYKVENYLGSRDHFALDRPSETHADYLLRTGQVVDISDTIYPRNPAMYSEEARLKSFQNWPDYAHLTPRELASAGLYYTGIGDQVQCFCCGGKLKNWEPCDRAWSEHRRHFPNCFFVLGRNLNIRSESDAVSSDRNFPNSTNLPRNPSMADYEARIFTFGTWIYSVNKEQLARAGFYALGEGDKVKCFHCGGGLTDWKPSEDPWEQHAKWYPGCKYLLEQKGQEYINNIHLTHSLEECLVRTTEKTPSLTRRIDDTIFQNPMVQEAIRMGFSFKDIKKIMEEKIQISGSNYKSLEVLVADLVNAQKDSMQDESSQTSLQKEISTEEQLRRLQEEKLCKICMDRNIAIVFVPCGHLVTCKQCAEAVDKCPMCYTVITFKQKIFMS
# full length XIAP, sequence (P98170 whole entry): as above
# XIAP, sequence (P98170 whole entry): as above
SMILES,Relative Potency (fold versus SMAC peptide) (full length XIAP),% nonviable cells (Jurkat leukemia cells; 1 µM),% nonviable cells (Jurkat leukemia cells; 10 µM),% nonviable cells (Jurkat leukemia cells; 25 µM),% nonviable cells (Jurkat leukemia cells; 50 µM),other results
CCCC[C@@H](CNCc1ccccc1)N1C[C@@H](CC(C)C)N(CC(C)c2ccc(CC(C)C)cc2)C(=O)C1=O (stereo partly drawn) [TPI 1391-1],–,18%,20%,69%,91%,–
CCCC[C@@H](CNCc1ccccc1)N1C[C@@H](CC(C)C)N(CCc2cccc(C(F)(F)F)c2)C(=O)C1=O [TPI 1391-4],–,20%,48%,90%,86%,–
CCCC[C@@H](CNCc1ccccc1)N1C[C@@H](CC(C)C)N(CC2CCC(C(C)(C)C)CC2)C(=O)C1=O (stereo partly drawn) [TPI 1391-5],–,17%,36%,88%,88%,–
CCCC[C@H](CNCc1ccccc1)N1C[C@@H](CC(C)C)N(CC2CCC(C(C)(C)C)CC2)C(=O)C1=O (stereo partly drawn) [TPI 1391-17],–,13%,45%,88%,91%,% nonviable cells (Jurkat leukemia cells; 5 µM): 25%
CCCCCCCN1C(=O)C(=O)N([C@H](CCCC)CNCc2ccccc2)C[C@@H]1Cc1ccc2ccccc2c1 [TPI 1391-21],3.7,16%,44%,91%,94%,EC50 (full length XIAP): 33.6 µM
CC(C)Cc1ccc(C(C)CN2C(=O)C(=O)N([C@H](CNCc3ccccc3)Cc3ccc4ccccc4c3)C[C@H]2CC(C)C)cc1 (stereo partly drawn) [TPI 1391-25],–,16%,60%,90%,87%,–
COc1ccc(CCN(CCCC[C@@H](CN(C(=O)Nc2ccccc2)[C@@H](CNC(=O)Nc2ccccc2)CC2CCCCC2)N(C)C(=O)Nc2ccccc2)C(=O)Nc2ccccc2)cc1 [TPI 1396-25],–,–,–,–,–,Activity* (relative caspase-3 activity: Vmax in the presence of compound / Vmax of controls having caspase-3 and XIAP) (XIAP-inhibited caspase-3): 1.6
COc1ccc(CCN(C(=O)Nc2ccccc2)[C@H](Cc2ccccc2)CN(C(=O)Nc2ccccc2)[C@@H](CNC(=O)Nc2ccccc2)CC2CCCCC2)cc1 [TPI 1396-31],–,–,–,–,–,Activity* (relative caspase-3 activity: Vmax in the presence of compound / Vmax of controls having caspase-3 and XIAP) (XIAP-inhibited caspase-3): 1.3

# Second part, led by results:
Relative Potency (fold versus SMAC peptide) (full length XIAP),SMILES,% nonviable cells (Jurkat leukemia cells; 1 µM),% nonviable cells (Jurkat leukemia cells; 10 µM),% nonviable cells (Jurkat leukemia cells; 25 µM),% nonviable cells (Jurkat leukemia cells; 50 µM),other results
5.2,"N[C@@H](Cc1cccs1)C(=O)N[C@@H](Cc1ccc2ccccc2c1)C(=O)N[C@@H](Cc1ccc(Cl)cc1)C(=O)N[C@@H](CCCCNC(=O)OCC1c2ccccc2-c2ccccc21)C(=O)O [TPI 792-33, L-3-(2-thienyl)-alanyl-L-(2-naphthyl)-alanyl-L-p-chloro-phenylalanyl-L-(e-fluorenylmethyloxycarbonyl)-lysine] (H-[2Thi][2Nal][Phe(4-Cl)]K(Fmoc)-OH)",–,–,–,–,"cell viability, compound alone [1]: reduced viability of these prostate cancer cells by nearly half; tumor cell killing, combination with VP-16 [1]: more potent tumor cell killing compared to VP-16 alone; LC (lowest concentration with a ratio of 2 or higher in the derepression assay) (XIAP-inhibited caspase-3): 0.4 micrograms per milliliter; activity in the caspase derepression assay using full length XIAP (XIAP-inhibited caspase-3): activity; LC (lowest concentration with a ratio of 2 or higher in the derepression assay) (XIAP-inhibited caspase-3; tested at 0.4, 2, 10 and 50): 0.4 µg/mL; competition with XIAP binding to the SMAC peptide (SMAC competition assay) (XIAP): activity"
2.5,"N[C@@H](Cc1cccs1)C(=O)N[C@@H](Cc1ccc2ccccc2c1)C(=O)N[C@H](CCCCNC(=O)OCC1c2ccccc2-c2ccccc21)C(=O)N[C@@H](CCCCNC(=O)OCC1c2ccccc2-c2ccccc21)C(=O)O [TPI 792-35, L-3-(2-thienyl)-alanyl, L-(2-naphthyl)-alanyl-D-(e-fluorenylmethyloxycarbonyl)-lysyl-L-(e-fluorenylmethyloxycarbonyl)-lysine] (H-[2Thi][2Nal][dK](Fmoc)K(Fmoc)-OH)",–,–,–,–,"cell viability, compound alone [1]: reduced viability of these prostate cancer cells by nearly half; tumor cell killing, combination with VP-16 [1]: more potent tumor cell killing compared to VP-16 alone; activity in the caspase derepression assay using full length XIAP (XIAP-inhibited caspase-3): activity; LC (lowest concentration with a ratio of 2 or higher in the derepression assay) (XIAP-inhibited caspase-3; tested at 0.4, 2, 10 and 50): 2 µg/mL; competition with XIAP binding to the SMAC peptide (SMAC competition assay) (XIAP): activity"
5,CC(C)C[C@@H]1CN([C@H](CNCc2ccccc2)Cc2ccc3ccccc3c2)C(=O)C(=O)N1CCc1cccc(C(F)(F)F)c1 [TPI 1391-28],19%,55%,87%,91%,"toxicity to normal bone marrow cells [2]: little toxicity; EC50 (full length XIAP): 25.1 µM; cells killed (Jurkat leukemia cells; 5 μM): about 45%; cells killed (Jurkat leukemia cells; 8 μM): ~80%; EC50 (Jurkat leukemia cells; one-day exposure, read-out: EC50 for killing Jurkat leukemia cells): ~6.5 µM"
3.3,O=C1C(=O)N([C@H](CNCc2ccccc2)Cc2ccc3ccccc3c2)C[C@H](Cc2ccc3ccccc3c2)N1CCc1cccc(C(F)(F)F)c1 [TPI 1391-34],–,–,–,–,EC50 (full length XIAP): 39.4 µM
